The test has as its target EGFR (human) (UniProt P00533).

The structures appear in SMILES notation.

EGFR (human), sequence (P00533 whole entry, looked up): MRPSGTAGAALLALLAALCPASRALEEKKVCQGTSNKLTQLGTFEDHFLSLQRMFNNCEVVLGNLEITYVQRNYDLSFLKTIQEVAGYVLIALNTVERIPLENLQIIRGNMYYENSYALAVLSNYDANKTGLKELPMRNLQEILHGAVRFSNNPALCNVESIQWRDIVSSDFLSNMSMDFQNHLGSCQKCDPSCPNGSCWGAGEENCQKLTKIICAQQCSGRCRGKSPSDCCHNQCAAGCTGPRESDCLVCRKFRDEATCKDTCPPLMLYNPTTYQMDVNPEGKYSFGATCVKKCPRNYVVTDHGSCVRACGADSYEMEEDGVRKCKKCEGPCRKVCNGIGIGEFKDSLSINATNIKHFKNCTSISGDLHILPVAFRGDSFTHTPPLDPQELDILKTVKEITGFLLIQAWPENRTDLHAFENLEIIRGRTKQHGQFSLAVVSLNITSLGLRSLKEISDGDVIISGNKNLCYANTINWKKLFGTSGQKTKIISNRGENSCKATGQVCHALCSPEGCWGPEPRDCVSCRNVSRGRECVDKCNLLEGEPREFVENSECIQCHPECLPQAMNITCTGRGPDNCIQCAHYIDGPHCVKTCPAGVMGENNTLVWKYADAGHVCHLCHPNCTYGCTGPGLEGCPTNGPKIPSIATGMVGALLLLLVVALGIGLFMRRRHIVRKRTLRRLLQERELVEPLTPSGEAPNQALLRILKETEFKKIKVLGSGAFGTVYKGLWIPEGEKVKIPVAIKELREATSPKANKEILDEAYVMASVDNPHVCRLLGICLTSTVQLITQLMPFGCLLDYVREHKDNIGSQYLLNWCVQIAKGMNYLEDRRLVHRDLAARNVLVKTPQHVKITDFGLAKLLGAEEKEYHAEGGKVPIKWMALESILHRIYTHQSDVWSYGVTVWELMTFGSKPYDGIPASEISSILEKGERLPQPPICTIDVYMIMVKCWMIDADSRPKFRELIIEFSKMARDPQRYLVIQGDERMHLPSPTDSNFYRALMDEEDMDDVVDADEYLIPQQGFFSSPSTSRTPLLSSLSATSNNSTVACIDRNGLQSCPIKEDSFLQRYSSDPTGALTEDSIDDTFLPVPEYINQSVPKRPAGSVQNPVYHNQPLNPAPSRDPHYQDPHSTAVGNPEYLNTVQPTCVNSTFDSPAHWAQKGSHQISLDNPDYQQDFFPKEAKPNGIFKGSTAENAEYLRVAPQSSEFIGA

On to `CC(=O)Nc1cc2ncnc(Nc3cccc(Br)c3)c2cn1`, for which the IC50 is 29.5 nM. For `Fc1cc2ncnc(Nc3cccc(Br)c3)c2cn1` the value was 13.2 nM; for `COc1cc2ncnc(Nc3cccc(Br)c3)c2cn1`, 39.8 nM. For `COc1cccc(Nc2ncnc3cc(N)ncc23)c1` the value was 132 nM. `Nc1cc2ncnc(Nc3cccc([N+](=O)[O-])c3)c2cn1` showed an IC50 of 40.7 nM. Regarding `COc1cc2ncnc(Nc3ccc(Br)cc3)c2cc1OC`, the IC50 amounted to 0.977 nM.

Regarding `Nc1ccc2c(Nc3ccccc3)ncnc2c1`, the IC50 was 100 nM. For `CN(C)c1cccc(Nc2ncnc3cc(N)ncc23)c1` the value was 1820 nM.

Turning to `Nc1cc2ncnc(Nc3cccc(F)c3)c2cn1`, the IC50 came to 851 nM.

Consider `Nc1cc2ncnc(Nc3ccccc3Br)c2cn1`, for which the IC50 stood at 245 nM.

A word on the IC50: it is the concentration at which inhibition is half-maximal. A low value points to higher potency.
